In patent publication US20260092074A1, “Annelated Pyridines as Steroidogenesis Inhibitors, Preparation Method and Use Thereof” (Guangzhou Vinnocent Pharmaceutical Limited, priority 2022, published 2026):

Key:
[1] = target: T1, human CYP11B1 (Homo sapiens, UniProt P15538); assay: Inhibition of hCYP11B1 in transfected V79 cells; format: cell-based; conditions: hamster V79 cells expressing human CYP11B1; substrate 11-deoxycortisol 200 nM
T1 construct: expressed in transfected cells
T1 sequence (P15538 25-503): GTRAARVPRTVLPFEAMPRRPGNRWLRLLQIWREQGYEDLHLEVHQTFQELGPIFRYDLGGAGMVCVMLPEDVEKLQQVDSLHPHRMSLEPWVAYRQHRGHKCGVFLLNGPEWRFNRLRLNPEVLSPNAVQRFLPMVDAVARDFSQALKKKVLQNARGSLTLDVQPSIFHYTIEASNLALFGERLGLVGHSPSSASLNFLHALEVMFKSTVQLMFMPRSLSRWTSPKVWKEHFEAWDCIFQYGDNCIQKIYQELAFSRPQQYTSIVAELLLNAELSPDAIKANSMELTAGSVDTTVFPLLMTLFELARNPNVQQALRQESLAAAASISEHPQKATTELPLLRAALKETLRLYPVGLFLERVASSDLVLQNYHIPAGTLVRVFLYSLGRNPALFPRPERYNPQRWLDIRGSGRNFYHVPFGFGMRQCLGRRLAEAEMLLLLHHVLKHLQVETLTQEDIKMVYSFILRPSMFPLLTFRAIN
Outline: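 Reactions started with 200 nM 11-deoxycortisol, ran for 30 min and were stopped with ethyl acetate, after a 2 h compound preincubation. The host was stably transfected V79 hamster cells carrying human CYP11B1 plus rat P450 reductase. Percent inhibition, from LC-MS/MS or HPLC (260 nm) quantitation of substrate and product, gave the IC50.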

[2] = target: T2, human CYP11B2 (Homo sapiens, UniProt P19099); assay: Inhibition of hCYP11B2 in transfected V79 cells; format: cell-based; conditions: hamster V79 cells expressing human CYP11B2; substrate 11-deoxycorticosterone 200 nM
T2 construct: expressed in transfected cells
T2 sequence (P19099 25-503): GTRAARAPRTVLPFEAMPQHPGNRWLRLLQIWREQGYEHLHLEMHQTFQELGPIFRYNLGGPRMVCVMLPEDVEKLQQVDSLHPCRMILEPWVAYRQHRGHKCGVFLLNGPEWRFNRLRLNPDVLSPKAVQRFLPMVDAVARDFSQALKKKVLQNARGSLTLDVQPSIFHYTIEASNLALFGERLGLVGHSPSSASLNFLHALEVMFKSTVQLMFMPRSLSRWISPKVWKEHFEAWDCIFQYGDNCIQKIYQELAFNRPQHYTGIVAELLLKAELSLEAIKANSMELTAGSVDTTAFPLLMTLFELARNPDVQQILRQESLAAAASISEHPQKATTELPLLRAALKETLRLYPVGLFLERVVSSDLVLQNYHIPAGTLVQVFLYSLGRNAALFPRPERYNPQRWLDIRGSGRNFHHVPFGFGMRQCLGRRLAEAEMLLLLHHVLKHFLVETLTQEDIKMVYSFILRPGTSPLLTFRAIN
Outline: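 The substrate (200 nM, 30 min) was added after a 2 hour compound pre-incubation in lentivirus-transduced V79 cells stably expressing human CYP11B2 plus rat NADPH-P450 reductase.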

Row | Compound | IC50 [1] | IC50 [2]
1 | N#Cc1ccc(-c2cncc3c2OCCN3C(=O)C2CN(Cc3ccc(F)cc3)C2)cc1 [O79, 4-(4-(1-(4-Fluorobenzyl)azetidine-3-carbonyl)-3,4-dihydro-2H-pyrido[4,3-b][1,4]oxazin-8-yl)benzonitrile] | 137 nM | 2.9 nM
2 | COc1cccc(CN2CC(C(=O)N3CCOc4c(-c5ccc(C#N)cc5)cncc43)C2)c1 [O82, 4-(4-(1-(3-Methoxybenzyl)azetidine-3-carbonyl)-3,4-dihydro-2H-pyrido[4,3-b][1,4]oxazin-8-yl)benzonitrile] | 69 nM | 1.4 nM
3 | COc1ccc(CN2CC(C(=O)N3CCOc4c(-c5ccc(C#N)cc5)cncc43)C2)cc1 [O83, 4-(4-(1-(4-Methoxybenzyl)azetidine-3-carbonyl)-3,4-dihydro-2H-pyrido[4,3-b][1,4]oxazin-8-yl)benzonitrile] | 112 nM | 1 nM
4 | N#Cc1ccc(-c2cncc3c2OCCN3C(=O)C2CN(c3cccc(F)c3)C2)cc1 [O84, 4-(4-(1-(3-Fluorophenyl)azetidine-3-carbonyl)-3,4-dihydro-2H-pyrido[4,3-b][1,4]oxazin-8-yl)benzonitrile] | 53 nM | 1.6 nM
5 | N#Cc1ccc(-c2cncc3c2OCCN3C(=O)C2CN(c3cccc(C#N)c3)C2)cc1 [O86, 3-(3-(8-(4-Cyanophenyl)-3,4-dihydro-2H-pyrido[4,3-b][1,4]oxazine-4-carbonyl)azetidin-1-yl)benzonitrile] | 72 nM | 0.8 nM
6 | N#Cc1ccc(-c2cncc3c2OCCN3C(=O)C2CN(c3ccc(C#N)cc3)C2)cc1 [O87, 4-(3-(8-(4-Cyanophenyl)-3,4-dihydro-2H-pyrido[4,3-b][1,4]oxazine-4-carbonyl)azetidin-1-yl)benzonitrile] | 55 nM | 2.5 nM
7 | O=C(C1CN(Cc2cccc(F)c2)C1)N1CCOc2c(-c3ccc4nccn4c3)cncc21 [O90, (1-(3-Fluorobenzyl)azetidin-3-yl)(8-(imidazo[1,2-a]pyridin-6-yl)-2,3-dihydro-4H-pyrido[4,3-b][1,4]oxazin-4-yl)methanone] | 3260 nM | 48.8 nM
8 | O=C(C1CN(Cc2cccc(F)c2)C1)N1CCOc2c(-c3cc4ccc(Cl)cc4[nH]3)cncc21 [O91, (8-(6-Chloro-1H-indol-2-yl)-2,3-dihydro-4H-pyrido[4,3-b][1,4]oxazin-4-yl)(1-(3-fluorobenzyl)azetidin-3-yl)methanone] | 4160 nM | 92 nM
9 | O=C(C1CN(Cc2cccc(F)c2)C1)N1CCOc2c(-c3cc4ccc(F)cc4[nH]3)cncc21 [O93, (8-(6-Fluoro-1H-indol-2-yl)-2,3-dihydro-4H-pyrido[4,3-b][1,4]oxazin-4-yl)(1-(3-fluorobenzyl)azetidin-3-yl)methanone] | 4170 nM | 90 nM
10 | N#Cc1ccc2[nH]c(-c3cncc4c3OCCN4C(=O)C3CN(Cc4cccc(F)c4)C3)cc2c1 [O94, 2-(4-(1-(3-Fluorobenzyl)azetidine-3-carbonyl)-3,4-dihydro-2H-pyrido[4,3-b][1,4]oxazin-8-yl)-1H-indole-5-carbonitrile] | 381 nM | 4.7 nM
11 | O=C(C1CN(Cc2cccc(F)c2)C1)N1CCOc2c(-c3cc4cc(Cl)ccc4o3)cncc21 [O95, (8-(5-Chlorobenzofuran-2-yl)-2,3-dihydro-4H-pyrido[4,3-b][1,4]oxazin-4-yl)(1-(3-fluorobenzyl)azetidin-3-yl)methanone] | 4590 nM | 41 nM
12 | N#Cc1ccc2oc(-c3cncc4c3OCCN4C(=O)C3CN(Cc4cccc(F)c4)C3)cc2c1 [O96, 2-(4-(1-(3-Fluorobenzyl)azetidine-3-carbonyl)-3,4-dihydro-2H-pyrido[4,3-b][1,4]oxazin-8-yl)benzofuran-5-carbonitrile] | 1340 nM | 5.2 nM
13 | N#CN1CC=C(c2cncc3c2OCCN3C(=O)C2CN(Cc3cccc(F)c3)C2)CC1 [O97, 4-(4-(1-(3-Fluorobenzyl)azetidine-3-carbonyl)-3,4-dihydro-2H-pyrido[4,3-b][1,4]oxazin-8-yl)-3,6-dihydropyridine-1 (2H)-carbonitrile] | 219 nM | 35 nM
14 | N#CN1CCN(c2cncc3c2OCCN3C(=O)C2CN(Cc3cccc(F)c3)C2)CC1 [O98, 4-(4-(1-(3-Fluorobenzyl)azetidine-3-carbonyl)-3,4-dihydro-2H-pyrido[4,3-b][1,4]oxazin-8-yl)piperazine-1-carbonitrile] | 677 nM | 46 nM
15 | N#CN1CCN(c2cncc3c2OCCN3C(=O)C2CN(Cc3cccc(F)c3)C2)C(=O)C1 [O99, 4-(4-(1-(3-Fluorobenzyl)azetidine-3-carbonyl)-3,4-dihydro-2H-pyrido[4,3-b][1,4]oxazin-8-yl)-3-oxopiperazine-1-carbonitrile] | 652 nM | 39 nM
16 | N#Cc1ccc(-c2cncc3c2OCCN3S(=O)(=O)C2CC(c3cccc(C#N)c3)=NO2)cc1 (stereo not shown) [O101, 3-(5-((8-(4-Cyanophenyl)-2,3-dihydro-4H-pyrido[4,3-b][1,4]oxazin-4-yl)sulfonyl)-4,5-dihydroisoxazol-3-yl)benzonitrile] | 57 nM | 0.4 nM

The remaining compounds from weak to strong by IC50 [1], led by results:

Row | IC50 [1] | IC50 [2] | Compound
17 | 4440 nM | 28.4 nM | N#Cc1ccc2cc(-c3cncc4c3OCCN4C(=O)C3CN(Cc4cccc(F)c4)C3)[nH]c2c1 [O92, 2-(4-(1-(3-Fluorobenzyl)azetidine-3-carbonyl)-3,4-dihydro-2H-pyrido[4,3-b][1,4]oxazin-8-yl)-1H-indole-6-carbonitrile]
18 | 2550 nM | 15.6 nM | O=C1Cc2cc(-c3cncc4c3OCCN4C(=O)C3CN(Cc4cccc(F)c4)C3)ccc2N1 [O89, 5-(4-(1-(3-Fluorobenzyl)azetidine-3-carbonyl)-3,4-dihydro-2H-pyrido[4,3-b][1,4]oxazin-8-yl)indolin-2-one]
19 | 485 nM | 6 nM | O=C(C1CN(Cc2cccc(F)c2)C1)N1CCOc2c(-c3ccc4ncsc4c3)cncc21 [O88, (8-(Benzo[d]thiazol-6-yl)-2,3-dihydro-4H-pyrido[4,3-b][1,4]oxazin-4-yl)(1-(3-fluorobenzyl)azetidin-3-yl)methanone]
20 | 185 nM | 1 nM | N#Cc1ccc(-c2cncc3c2OCCN3C(=O)C2CN(Cc3cccc(C#N)c3)C2)cc1 [O80, 3-((3-(8-(4-Cyanophenyl)-3,4-dihydro-2H-pyrido[4,3-b][1,4]oxazine-4-carbonyl)azetidin-1-yl)methyl)benzonitrile]
21 | 183 nM | 2.1 nM | N#Cc1ccc(-c2cncc3c2OCCN3C(=O)C2CN(Cc3cccc(F)c3)C2)cc1 [O78, 4-(4-(1-(3-Fluorobenzyl)azetidine-3-carbonyl)-3,4-dihydro-2H-pyrido[4,3-b][1,4]oxazin-8-yl)benzonitrile]
22 | 102 nM | 0.3 nM | COc1cccc(C2=NOC(S(=O)(=O)N3CCOc4c(-c5ccc(C#N)cc5)cncc43)C2)c1 (stereo not shown) [O100, 4-(4-((3-(3-Methoxyphenyl)-4,5-dihydroisoxazol-5-yl)sulfonyl)-3,4-dihydro-2H-pyrido[4,3-b][1,4]oxazin-8-yl)benzonitrile]
23 | 79 nM | 0.5 nM | N#Cc1ccc(-c2cncc3c2OCCN3S(=O)(=O)C2CC(Cc3ccccc3)=NO2)cc1 (stereo not shown) [O103, 4-(4-((3-benzyl-4,5-dihydroisoxazol-5-yl)sulfonyl)-3,4-dihydro-2H-pyrido[4,3-b][1,4]oxazin-8-yl)benzonitrile]
24 | 72 nM | 0.6 nM | N#Cc1ccc(CN2CC(C(=O)N3CCOc4c(-c5ccc(C#N)cc5)cncc43)C2)cc1 [O81, 4-(4-(1-(4-Cyanobenzyl)azetidine-3-carbonyl)-3,4-dihydro-2H-pyrido[4,3-b][1,4]oxazin-8-yl)benzonitrile]
25 | 64 nM | 4.6 nM | N#Cc1ccc(-c2cncc3c2OCCN3C(=O)C2CN(c3ccc(F)cc3)C2)cc1 [O85, 4-(4-(1-(4-Fluorophenyl)azetidine-3-carbonyl)-3,4-dihydro-2H-pyrido[4,3-b][1,4]oxazin-8-yl)benzonitrile]
26 | 62 nM | 0.3 nM | N#Cc1ccc(-c2cncc3c2OCCN3S(=O)(=O)C2CC(c3ccccc3)=NO2)cc1 (stereo not shown) [O102, 4-(4-((3-Phenyl-4,5-dihydroisoxazol-5-yl)sulfonyl)-3,4-dihydro-2H-pyrido[4,3-b][1,4]oxazin-8-yl)benzonitrile]
